This experiment addresses T1, Muscarinic acetylcholine receptor M1 (Homo sapiens, UniProt P11229).
T1 sequence (P11229 whole entry): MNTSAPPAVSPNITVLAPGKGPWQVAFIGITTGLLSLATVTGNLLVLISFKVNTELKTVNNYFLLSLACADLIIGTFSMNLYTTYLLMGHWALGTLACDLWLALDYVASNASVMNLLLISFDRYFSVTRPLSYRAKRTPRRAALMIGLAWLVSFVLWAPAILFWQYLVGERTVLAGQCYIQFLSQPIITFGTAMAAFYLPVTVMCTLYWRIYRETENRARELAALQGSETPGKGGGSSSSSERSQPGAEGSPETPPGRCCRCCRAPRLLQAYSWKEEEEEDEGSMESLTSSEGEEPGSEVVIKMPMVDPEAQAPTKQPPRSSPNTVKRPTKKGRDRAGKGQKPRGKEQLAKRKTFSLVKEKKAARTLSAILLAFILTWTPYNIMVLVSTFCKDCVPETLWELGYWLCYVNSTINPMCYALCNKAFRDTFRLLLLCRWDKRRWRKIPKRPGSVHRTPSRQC
The experiment is described as follows: Positive allosteric modulation of muscarinic M1 receptor expressed in CHO cells assessed as effect on acetylcholine-induced intracellular calcium mobilization after 1 hr by FLIPR assay. In general terms: Calcium flux is commonly read through the fluorescence of an indicator in the cells.

pEC50: −log10 of the molar value.

In general, pEC50 refers to the EC50 on a negative log10 scale, so that one unit is a factor of ten.

Consider `O=C1C(=O)N(Cc2ccc(Br)cc2)c2ccccc21`, for which the pEC50 was 5.21.

The record behind these values is BindingDB's records for doi:10.1016/j.bmcl.2010.08.042 (Vanderbilt University Medical Center, 2010).
